The source of these data is PMC8950151, “Synthesis and Evaluation of the Antifungal and Toxicological Activity of Nitrofuran Derivatives” (Pharmaceutics, 2022).

Values after ≈ are worked out from the molar mass of the structure shown. Where two headings read alike, the source gives them in different places.

Series [1] deals with Candida albicans (ATCC 90028). The experiment in a line: Susceptibility test (CLSI M27-A3 broth microdilution, resazurin readout), MIC90. The following applies: ATCC90028, C. albicans, 24 h, 37 °C. Type of series: cell-based.
The test system of series [2] is C. krusei (ATCC 6258). Described as above. Type of series: cell-based, Candida krusei. The following applies: Pichia kudriavzevii, ATCC6258, 24 h.
Series [3] concerns C. glabrata (ATCC 90030). Described as above. It counts as cell-based, Candida glabrata. The following applies: Nakaseomyces glabratus, ATCC90030, 24 h, 37 °C.
Series [4] deals with Cryptococcus neoformans (H99/ATCC 208821). Described as above. The conditions noted are these: ATCC208821, 48 h. Type of series: cell-based.
For series [5], the system named is Histoplasma capsulatum (G217-B/ATCC 26032). Briefly: microbe, parasite or virus in culture. Type of series: cell-based. The following applies: ATCC26032, 144 h.
In series [6] the test system is T. rubrum (ATCC 28289). The experiment in a line: Susceptibility assay for dermatophytes (CLSI M38-A2, resazurin), MIC90. It counts as cell-based. The conditions noted are these: Trichophyton rubrum, ATCC28289, 96 h, 35 °C. For orientation: Alamar Blue is a resazurin reagent that responds to reducing activity.
For series [7], the system named is Trichophyton mentagrophytes (ATCC 11481). The series is described as above. It counts as cell-based. The conditions noted are these: Trichophyton mentagrophytes, ATCC11481, 96 h, T. mentagrophytes, 35 °C, read-out: MIC90.
Series [8] deals with Candida albicans (ATCC 90028). Briefly: Minimum fungicidal concentration (MFC). Type of series: cell-based. The conditions noted are these: ATCC90028, C. albicans.
In series [9] the test system is C. krusei (ATCC 6258). The experiment in a line: Minimum fungicidal concentration (MFC). The following applies: Pichia kudriavzevii, ATCC6258. It counts as cell-based, Candida krusei.
In series [10] the test system is C. glabrata (ATCC 90030). The experiment in a line: Minimum fungicidal concentration (MFC). Type of series: cell-based, Candida glabrata. The following applies: Nakaseomyces glabratus, ATCC90030.
For series [11], the system named is Cryptococcus neoformans (H99/ATCC 208821). The experiment in a line: Minimum fungicidal concentration (MFC). Type of series: cell-based. The conditions noted are these: ATCC208821, C. neoformans.
For series [12], the system named is Histoplasma capsulatum (G217-B/ATCC 26032). Briefly: microbe, parasite or virus in culture. It counts as cell-based. The following applies: ATCC26032.
For series [13], the system named is Paracoccidioides brasiliensis (Pb 18). Briefly: microbe, parasite or virus in culture. Type of series: cell-based. The following applies: Paracoccidioides brasiliensis.
In series [14] the test system is T. rubrum (ATCC 28289). The experiment in a line: Minimum fungicidal concentration (MFC). Type of series: cell-based, Trichophyton rubrum. The conditions noted are these: Trichophyton rubrum, ATCC28289.
The test system of series [15] is Trichophyton mentagrophytes (ATCC 11481). The experiment in a line: Minimum fungicidal concentration (MFC). The following applies: T. mentagrophytes; for MFC: Trichophyton mentagrophytes, ATCC11481. It counts as cell-based.
Series [16] concerns A549 (ATCC CCL-185) lung epithelial cell line. The experiment in a line: Cytotoxicity assay in monolayer by resazurin colorimetric method. It counts as cell-based. The following applies: Homo sapiens, A549 cells, 72 h.
The nature of another series: in vivo. The conditions noted are these: AU37 [glp-4 (bn2) I, sek-1 (km4) X], Caenorhabditis elegans, C. elegans larvae viability. Here is the method:
The experiments were carried out with the mutant strain (AU37 [glp-4 (bn2) I; […]]). The strain was maintained on plates containing nematode growth medium (NGM) seeded with Escherichia coli OP50 at 16 °C. The stage of synchronization of young adults at stage L4 was performed for the toxicity test. About 20 larvae were transferred to each well of 96-well plates containing 100 μL of a medium composed of 60% of 50 mM NaCl; 40% BHI broth; 10 mg/mL cholesterol in ethanol; 200 mg/mL ampicillin and 90 mg/mL kanamycin. Then, 100 μL of dilutions of nitrofuran derivatives (showing the best selectivity index against the fungal species) were added. […] Plates were incubated at 25 °C for 24 h. Survival was assessed by the mobility and shape of the nematode (stick-shaped larvae were considered dead, while sinusoidal larvae were considered alive) under an inverted optical microscope on 40× objective lenses.

The next series is described as follows: in vitro. The conditions noted are these: human.

Take `O=C(NCCc1ccccn1)c1ccc([N+](=O)[O-])o1` [Compound 3, 5-nitro-N-(2-(pyridin-2-yl)ethyl)furan-2-carboxamide]: the MIC90 is above 250 µg/mL in series [1]; 250 µg/mL (≈ 957 µM) in the series with C. krusei (ATCC 6258) [2]; above 250 µg/mL against C. glabrata (ATCC 90030) [3]; 31.2 µg/mL (≈ 120 µM) in [4]; 3.9 µg/mL (≈ 14.9 µM) in series [5]; 125 µg/mL (≈ 478 µM) against T. rubrum (ATCC 28289) [6]. For the same molecule, the MIC90 in [7] is 62.5 µg/mL (≈ 239 µM). Besides, the MFC in series [8] is above 250 µg/mL; in the series with C. krusei (ATCC 6258) [9] it was above 250 µg/mL; with C. glabrata (ATCC 90030) [10] (C. glabrata, read-out: MFC) it was above 250 µg/mL; in series [11] it was 62.5 µg/mL (≈ 239 µM); in [12], 3.9 µg/mL (≈ 14.9 µM); in series [13], 0.98 µg/mL (≈ 3.75 µM). For the same molecule, the MFC was 125 µg/mL (≈ 478 µM) against T. rubrum (ATCC 28289) [14] and 250 µg/mL (≈ 957 µM) in series [15]. In addition, the “fungistatic / fungicidal profile” value in series [15] (MFC versus MIC90) is “fungistatic profile”. For the same molecule, the IC50 in series [16] amounted to 231 µg/mL (≈ 885 µM); in the series “in vitro” it was 250 µg/mL (≈ 957 µM). In the series “in vivo”, this molecule came in with a viability at 24 h, 250 µg/mL of 82.5%.
With `O=C(/C=C/c1ccc([N+](=O)[O-])o1)c1cc(F)c(Cl)cc1Cl` [Compound 17, (E)-1-(2,4-dichloro-5-fluorophenyl)-3-(5-nitrofuran-2-yl)prop-2-en-1-one], the MIC90 is above 250 µg/mL in series [1]; above 250 µg/mL against C. krusei (ATCC 6258) [2]; above 250 µg/mL with C. glabrata (ATCC 90030) [3]; at least 250 µg/mL in [4]; above 250 µg/mL in [5]; above 250 µg/mL against T. rubrum (ATCC 28289) [6]. The MIC90 in series [7] was above 250 µg/mL. For the same molecule, the MFC in [8] is above 250 µg/mL; against C. krusei (ATCC 6258) [9], above 250 µg/mL; in the series with C. glabrata (ATCC 90030) [10] (C. glabrata, read-out: MFC), above 250 µg/mL; in series [11] it was at least 250 µg/mL; in series [12], above 250 µg/mL; in [13], 3.9 µg/mL (≈ 11.8 µM). Moreover, the MFC (in the series with T. rubrum (ATCC 28289) [14]; in [15]) was above 250 µg/mL throughout. The figures for the IC50 (in series [16]; in “in vitro”) were 68.2 µg/mL (≈ 207 µM) and 1.56 µg/mL (≈ 4.73 µM), respectively.
With `CN(C)CCCNC(=O)c1ccc([N+](=O)[O-])o1` [Compound 6], the MIC90 in series [1] is above 250 µg/mL; with C. krusei (ATCC 6258) [2] it was above 250 µg/mL; against C. glabrata (ATCC 90030) [3], above 250 µg/mL; in series [4], 250 µg/mL (≈ 1040 µM); in series [5] it was above 250 µg/mL; with T. rubrum (ATCC 28289) [6], above 250 µg/mL. Besides, the MIC90 in series [7] is above 250 µg/mL. Besides, the MFC in series [8] was above 250 µg/mL; with C. krusei (ATCC 6258) [9], above 250 µg/mL; in the series with C. glabrata (ATCC 90030) [10] (C. glabrata, read-out: MFC), above 250 µg/mL; in series [11], 250 µg/mL (≈ 1040 µM); in series [12], above 250 µg/mL; in [13] it was 31.2 µg/mL (≈ 130 µM). Moreover, the MFC (in the series with T. rubrum (ATCC 28289) [14]; in [15]) was above 250 µg/mL in each case. Also, the figures for the IC50 (in series [16]; in “in vitro”) were 13.2 µg/mL (≈ 54.8 µM) and 15.6 µg/mL (≈ 64.7 µM), respectively.
With `O=C(/C=C/c1ccc([N+](=O)[O-])o1)c1ccc(F)cc1` [Compound 9], the MIC90 in [1] came out at 15.6 µg/mL (≈ 59.8 µM); in the series on C. krusei (ATCC 6258) [2], 250 µg/mL (≈ 957 µM); against C. glabrata (ATCC 90030) [3], 31.2 µg/mL (≈ 120 µM); in series [4] it was 7.81 µg/mL (≈ 29.9 µM); in series [5], 3.9 µg/mL (≈ 14.9 µM); against T. rubrum (ATCC 28289) [6], 0.98 µg/mL (≈ 3.75 µM). The MIC90 in [7] amounted to 1.95 µg/mL (≈ 7.47 µM). In addition, the MFC in series [8] is 31.2 µg/mL (≈ 120 µM); against C. krusei (ATCC 6258) [9] it was above 250 µg/mL; with C. glabrata (ATCC 90030) [10] (C. glabrata, read-out: MFC), above 250 µg/mL; in series [11] it was 15.6 µg/mL (≈ 59.8 µM); in [12], 3.9 µg/mL (≈ 14.9 µM); in series [13], 1.95 µg/mL (≈ 7.47 µM). The MFC (with T. rubrum (ATCC 28289) [14]; in [15]) was 1.95 µg/mL (≈ 7.47 µM) in each case. Further, the results for the IC50 (in series [16]; in the series “in vitro”) were 23.4 µg/mL (≈ 89.6 µM) and 47.2 µg/mL (≈ 181 µM), respectively.
Consider `O=C(NCCCc1ccccc1)c1ccc([N+](=O)[O-])o1` [Compound 5], for which the MIC90 in series [1] worked out at 125 µg/mL (≈ 456 µM); in the series on C. krusei (ATCC 6258) [2] it was 62.5 µg/mL (≈ 228 µM); with C. glabrata (ATCC 90030) [3] it was 125 µg/mL (≈ 456 µM); in series [4], 7.81 µg/mL (≈ 28.5 µM); in [5], 1.95 µg/mL (≈ 7.11 µM); in the series with T. rubrum (ATCC 28289) [6] it was 15.7 µg/mL (≈ 57.1 µM). Moreover, the MIC90 in [7] turned out to be 31.2 µg/mL (≈ 114 µM). Moreover, the MIC in series [4] (read-out: MIC90) amounted to 3.9 µg/mL (≈ 14.2 µM). For the same molecule, the MFC in series [8] worked out at 250 µg/mL (≈ 911 µM); against C. krusei (ATCC 6258) [9] it was 62.5 µg/mL (≈ 228 µM); against C. glabrata (ATCC 90030) [10], 125 µg/mL (≈ 456 µM); in series [11], 15.6 µg/mL (≈ 56.9 µM); in series [12], 1.95 µg/mL (≈ 7.11 µM); in series [13] it was 31.2 µg/mL (≈ 114 µM). The MFC in the series on T. rubrum (ATCC 28289) [14] is 31.2 µg/mL (≈ 114 µM); in [15], 62.5 µg/mL (≈ 228 µM). Besides, the IC50 in series [16] came to 30.1 µg/mL (≈ 110 µM); in the series “in vitro” it was 39.8 µg/mL (≈ 145 µM). The same molecule registered a viability at 24 h, 250 µg/mL in “in vivo” of 85.7%.

By IC50 is commonly meant the concentration that inhibits the measured activity by half. A high value points to lower potency. A word on the viability: it is a per cent measure of how many cells are alive, often set against a control.
